# Experiments:
# [1] = molecular target: T1, 5-hydroxytryptamine receptor 1A (Homo sapiens) (UniProt P08908); assay: Agonist efficacy of [35S]GTP-gamma-S, binding to 5-hydroxytryptamine 1A receptor compared with 5-HT; assay type: functional
# T1 sequence (whole entry): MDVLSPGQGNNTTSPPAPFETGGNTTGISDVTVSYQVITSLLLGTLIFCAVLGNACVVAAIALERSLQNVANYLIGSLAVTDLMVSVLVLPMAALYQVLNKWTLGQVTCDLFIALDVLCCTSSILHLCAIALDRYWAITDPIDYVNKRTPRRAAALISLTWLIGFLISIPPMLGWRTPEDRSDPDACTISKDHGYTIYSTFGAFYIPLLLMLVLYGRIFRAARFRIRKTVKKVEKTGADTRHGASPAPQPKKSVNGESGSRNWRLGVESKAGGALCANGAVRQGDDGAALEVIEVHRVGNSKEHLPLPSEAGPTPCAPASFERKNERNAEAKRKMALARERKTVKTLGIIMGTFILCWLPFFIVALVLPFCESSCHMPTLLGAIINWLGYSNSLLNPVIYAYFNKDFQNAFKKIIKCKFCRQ
# [2] = molecular target: T2, 5-hydroxytryptamine receptor 1A (Rattus norvegicus) (UniProt P19327)
# T2 sequence (whole entry): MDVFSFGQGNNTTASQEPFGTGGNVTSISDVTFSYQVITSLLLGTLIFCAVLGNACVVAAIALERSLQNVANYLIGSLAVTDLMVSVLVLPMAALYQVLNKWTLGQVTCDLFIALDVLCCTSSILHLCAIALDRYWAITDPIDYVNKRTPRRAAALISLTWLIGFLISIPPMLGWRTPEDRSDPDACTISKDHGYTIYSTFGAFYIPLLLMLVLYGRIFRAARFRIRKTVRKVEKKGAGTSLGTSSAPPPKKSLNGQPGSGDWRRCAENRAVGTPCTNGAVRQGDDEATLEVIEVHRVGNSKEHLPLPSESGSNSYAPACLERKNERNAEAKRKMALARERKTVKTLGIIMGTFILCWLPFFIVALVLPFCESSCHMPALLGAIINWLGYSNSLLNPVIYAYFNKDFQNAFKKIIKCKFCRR
# [3] = Selectivity ratio towards Alpha-1 adrenergic receptor to human 5-hydroxytryptamine 1A receptor
# [4] = molecular target: T2, 5-hydroxytryptamine receptor 1A (Rattus norvegicus); assay: Antagonistic activity at postsynaptic 5-hydroxytryptamine 1A receptor was measured by its ability to inhibit hypothermia elicited by s.c. administration of 8-OH-DPAT in rat;ranges from (0.45-4.51); assay type: functional, organism-based
# [5] = molecular target: T3, 5-hydroxytryptamine receptor 1A (Homo sapiens, UniProt P08908); assay: Binding affinity at human 5-hydroxytryptamine 1A receptor by inhibition of [3H]8-OH-DPAT binding in Chinese hamster ovary cell line; assay type: cell-based
# T3 sequence (P08908 whole entry): T1 sequence (whole entry)
# [6] = molecular target: T2, 5-hydroxytryptamine receptor 1A (Rattus norvegicus); assay: Antagonistic activity at postsynaptic 5-hydroxytryptamine 1A receptor was measured by its ability to inhibit hypothermia elicited by s.c. administration of 8-OH-DPAT in rat;ranges from (0.20-1.80); assay type: functional, organism-based
# [7] = molecular target: T4, Adrenergic receptor alpha-1 (Rattus norvegicus, UniProt P15823+P23944+P43140); assay: Binding affinity at Alpha-1 adrenergic receptor by inhibition of [3H]-prazosin binding to rat cortex
# T4 sequence (P15823 whole entry): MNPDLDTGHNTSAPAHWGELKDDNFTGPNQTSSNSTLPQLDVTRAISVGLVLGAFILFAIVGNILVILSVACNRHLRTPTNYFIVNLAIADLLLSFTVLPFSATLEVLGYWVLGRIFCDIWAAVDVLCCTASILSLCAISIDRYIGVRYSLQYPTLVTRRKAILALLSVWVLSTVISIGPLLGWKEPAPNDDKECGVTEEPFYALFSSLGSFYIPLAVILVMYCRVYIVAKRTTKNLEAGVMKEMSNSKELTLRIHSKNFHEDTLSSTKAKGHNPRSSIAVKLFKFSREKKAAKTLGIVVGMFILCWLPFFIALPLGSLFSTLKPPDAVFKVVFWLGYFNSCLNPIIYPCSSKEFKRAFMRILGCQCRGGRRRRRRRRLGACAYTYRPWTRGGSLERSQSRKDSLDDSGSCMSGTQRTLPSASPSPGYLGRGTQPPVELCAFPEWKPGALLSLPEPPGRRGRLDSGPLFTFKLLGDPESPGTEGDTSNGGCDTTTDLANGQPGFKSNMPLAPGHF
# T4 sequence (P23944 whole entry): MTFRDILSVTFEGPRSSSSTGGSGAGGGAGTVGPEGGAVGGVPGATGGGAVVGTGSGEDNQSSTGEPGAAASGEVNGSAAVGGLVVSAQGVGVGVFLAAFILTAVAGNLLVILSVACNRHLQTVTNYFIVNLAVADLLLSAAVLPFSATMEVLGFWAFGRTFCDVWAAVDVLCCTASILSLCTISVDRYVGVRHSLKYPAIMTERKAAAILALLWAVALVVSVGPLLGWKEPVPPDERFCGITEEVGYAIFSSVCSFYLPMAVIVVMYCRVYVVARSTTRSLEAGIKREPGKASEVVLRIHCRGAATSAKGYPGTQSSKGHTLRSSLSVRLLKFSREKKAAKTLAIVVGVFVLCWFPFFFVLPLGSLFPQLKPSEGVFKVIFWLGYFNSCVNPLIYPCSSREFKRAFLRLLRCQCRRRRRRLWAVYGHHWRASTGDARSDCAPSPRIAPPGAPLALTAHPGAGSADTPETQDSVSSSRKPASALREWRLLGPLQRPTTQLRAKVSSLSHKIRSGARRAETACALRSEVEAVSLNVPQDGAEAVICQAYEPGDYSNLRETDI
# T4 sequence (P43140 whole entry): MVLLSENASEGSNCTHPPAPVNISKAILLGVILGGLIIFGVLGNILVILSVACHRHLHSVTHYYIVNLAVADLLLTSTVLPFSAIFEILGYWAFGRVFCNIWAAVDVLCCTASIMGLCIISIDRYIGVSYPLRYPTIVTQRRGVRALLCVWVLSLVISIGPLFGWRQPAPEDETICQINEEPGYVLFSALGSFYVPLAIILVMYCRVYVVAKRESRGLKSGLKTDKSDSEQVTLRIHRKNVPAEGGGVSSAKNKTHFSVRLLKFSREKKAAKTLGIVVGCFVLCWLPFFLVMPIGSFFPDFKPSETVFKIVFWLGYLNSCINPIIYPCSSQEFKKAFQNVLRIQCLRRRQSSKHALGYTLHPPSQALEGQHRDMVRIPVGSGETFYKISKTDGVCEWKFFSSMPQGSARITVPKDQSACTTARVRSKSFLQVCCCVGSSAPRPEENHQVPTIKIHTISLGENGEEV
# [8] = molecular target: T2, 5-hydroxytryptamine receptor 1A (Rattus norvegicus); assay: Antagonistic activity at postsynaptic 5-HT1A receptor was measured by its ability to inhibit hypothermia elicited by s.c. administration of 8-OH-DPAT in rat;ranges from (.26-3.52); assay type: functional, organism-based
# [9] = In vitro oral metabolic bioavailability after incubation with hepatic microsomes; assay type: ADME, Liver; conditions: read-out: MF
# [10] = molecular target: T2, 5-hydroxytryptamine receptor 1A (Rattus norvegicus); assay: Antagonistic activity at postsynaptic 5-hydroxytryptamine 1A receptor was measured by its ability to inhibit hypothermia elicited by s.c. administration of 8-OH-DPAT in rat;ranges from (0.50-5.30); assay type: functional, organism-based
# [11] = molecular target: T2, 5-hydroxytryptamine receptor 1A (Rattus norvegicus); assay: Antagonistic activity at postsynaptic 5-hydroxytryptamine 1A receptor was measured by its ability to inhibit hypothermia elicited by s.c. administration of 8-OH-DPAT in rat;ranges from (2.20-30.5); assay type: functional, organism-based
# [12] = molecular target: T2, 5-hydroxytryptamine receptor 1A (Rattus norvegicus); assay: Antagonistic activity at postsynaptic 5-hydroxytryptamine 1A receptor was measured by its ability to inhibit hypothermia elicited by s.c. administration of 8-OH-DPAT in rat;ranges from (0.40-4); assay type: functional, organism-based
# [13] = molecular target: T2, 5-hydroxytryptamine receptor 1A (Rattus norvegicus); assay: Antagonistic activity at postsynaptic 5-hydroxytryptamine 1A receptor was measured by its ability to inhibit hypothermia elicited by s.c. administration of 8-OH-DPAT in rat;ranges from (0.20-1.60); assay type: functional, organism-based
# [14] = molecular target: T2, 5-hydroxytryptamine receptor 1A (Rattus norvegicus); assay: Antagonistic activity at postsynaptic 5-hydroxytryptamine 1A receptor was measured by its ability to inhibit hypothermia elicited by s.c. administration of 8-OH-DPAT in rat;ranges is not computable; assay type: functional, organism-based
Ratio [3],Ki [5],Log Ki [7],Fh [9],SMILES,further results
224,–,–,–,COc1ccc2c(c1)C[C@@H](N1CCN(c3cccc4c3OCCO4)CC1)[C@@H]2O (racemic),Efficacy [1]: 21%; ID50 [2]: 0.72 mg/kg
562,–,–,–,O[C@@H]1c2ccc(F)cc2C[C@H]1N1CCN(c2cccc3c2OCCO3)CC1 (racemic),ID50 [4]: 1.42 mg/kg
332,2.14 nM,-6.15,51%,O[C@@H]1c2cc(F)c(F)cc2C[C@H]1N1CCN(c2cccc3c2OCCO3)CC1 (relative stereo),ID50 [14]: 2.5 mg/kg

# Second part, the compound before the results:
SMILES,Ratio [3],Ki [5],Log Ki [7],Fh [9],further results
COc1ccc2c(c1)[C@@H](O)[C@H](N1CCC(c3cccc4c3OCCO4)CC1)C2 (relative stereo),55,1.1 nM,-7.22,–,ID50 [6]: 0.6 mg/kg
O[C@@H]1c2ccccc2C[C@H]1N1CCN(c2cccc3c2OCCO3)CC1 (relative stereo),575,1.62 nM,-6.03,21%,Efficacy [1]: 52%; ID50 [8]: 0.96 mg/kg
O[C@@H]1c2ccc(F)cc2C[C@H]1N1CC=C(c2cccc3c2OCCO3)CC1 (relative stereo),128,0.851 nM,-6.96,8%,ID50 [10]: 1.7 mg/kg
O=[N+]([O-])c1ccc2c(c1)[C@@H](O)[C@H](N1CCC(c3cccc4c3OCCO4)CC1)C2 (relative stereo),389,0.288 nM,-6.95,22%,ID50 [11]: 8.1 mg/kg
O[C@@H]1c2ccccc2C[C@H]1N1CC=C(c2cccc3c2OCCO3)CC1 (relative stereo),120,0.832 nM,-7,4%,ID50 [12]: 1.3 mg/kg
O[C@@H]1c2ccccc2C[C@H]1N1CCC(c2cccc3c2OCCO3)CC1 (relative stereo),112,0.708 nM,-7.1,7%,ID50 [13]: 0.5 mg/kg
